Measurements taken from patent US8686044B2, “Amide derivative, pest control agent containing the amide derivative, and use of the amide derivative” (Mitsui Chemicals Agro, Inc., priority 2008, dated 2014).

Columns and labels:
Type in all cases: in vivo
Laodelphax striatellus = assay: Pesticidal test against Laodelphax striatellus (rice seedling spray); conditions: 144 h, concentration 100 ppm, 3-stage larvae, examined after 6 days, 25° C., read-out: pesticidal rate
Outline: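 Rice seedlings sprayed with 2.5 ml acetone solution of compound at a predetermined concentration, air-dried, then infested with third-stage Laodelphax striatellus larvae in capped water-containing tubes at 25 °C. Living and dead insects counted after 6 days; ten larvae per group, two replicates.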

Plutella xylostella = assay: Pesticidal test against Plutella xylostella (cabbage leaf dip); conditions: foliar, 144 h, concentration 1 ppm, 2-stage larvae, examined after 6 days, 25° C., read-out: pesticidal rate
Outline: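 Cabbage leaf pieces dipped 30 s in test solution at a predetermined concentration, air-dried, then offered to 2nd-instar larvae, five per group in duplicate. Held at 25° C; living and dead larvae counted after 6 days.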

Helicoverpa armigera = assay: Pesticidal test against Helicoverpa armigera (cabbage leaf disk dip); conditions: foliar, 72 h, concentration 1 ppm, 2-stage larvae, examined after 3 days, 25° C., read-out: pesticidal rate
Outline: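 Cabbage leaf disks were dipped for 30 s in test solution at a set concentration and air-dried. Second-instar larvae were placed one per hole and held at 25 °C, with live and dead counts taken after 3 days. Five larvae per group were tested in two replicates.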

Adoxophyes honmai = assay: Pesticidal test against Adoxophyes honmai (artificial feed dip); conditions: 144 h, 2-stage larvae, examined after 6 days, 25° C., read-out: pesticidal rate; for pest or weed control at 1 ppm: concentration 1 ppm
Outline: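 Thin artificial feed slices dipped 30 s in test solution at a predetermined concentration, air-dried, then offered to 2nd-stage larvae. Kept at 25° C; live and dead larvae counted after 6 days. Five larvae per group, two replicates.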

Spodoptera litura = assay: Pesticidal test against Spodoptera litura (cabbage leaf dip); conditions: foliar, 144 h, concentration 1 ppm, 2-stage larvae, examined after 6 days, 25° C., read-out: pesticidal rate
Outline: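 Cabbage leaf pieces dipped 30 seconds in compound solution at a predetermined concentration and air-dried, then offered to second-stage larvae, five per group in two replicates. Held at 25° C. Living and dead larvae counted after 6 days.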

Blattella germanica = assay: Pesticidal test against Blattella germanica (petri dish dry film); conditions: 24 h, concentration 100 ppm, female adults, examined after 1 day, 25° C., read-out: pesticidal rate
Procedure: Pesticidal Test against Blattella germanica
1 ml of an acetone solution in which a test compound had been prepared at a predetermined concentration was added dropwise to a petri dish having a diameter of 9 cm, and air-dried, and then the female adults of Blattella germanica were released and the petri dish was capped. They were left to stand in a thermostatic chamber at 25° C., and the numbers of the living pests and the dead pests were examined after 1 day. The test was carried out with five larvae per group in two replicates.

Musca domestica = assay: Pesticidal test against Musca domestica (petri dish dry film); conditions: 24 h, concentration 100 ppm, female adults, examined after 1 day, 25° C., read-out: pesticidal rate
Outline: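 Dry film from 1 ml acetone solution of compound at a predetermined concentration, air-dried in a 9 cm petri dish; female adult flies released and dish capped. Held at 25° C; living and dead counted after 1 day. Five insects per group, two replicates.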

Choristoneura magnanima = assay: Pesticidal test against Choristoneura magnanima (artificial feed dip); conditions: 144 h, concentration 1 ppm, 2-stage larvae, examined after 6 days, 25° C., read-out: pesticidal rate
Outline: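 Thin artificial feed slices dipped 30 s in compound solution at a set concentration, air-dried, then offered to 2nd-stage larvae held at 25° C. Living and dead larvae counted after 6 days; five larvae per group, two replicates.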

O=C(Nc1c(Br)cc(C(F)(C(F)(F)F)C(F)(F)C(F)(F)F)cc1C(F)(F)F)c1cccc(NC(=O)c2ccccc2F)c1 (centres unmarked) [6-347]
≥ 70%: pest or weed control at 100 ppm (Laodelphax striatellus) | pest or weed control at 1 ppm (Plutella xylostella) | pest or weed control at 1 ppm (Helicoverpa armigera) | pest or weed control at 1 ppm (Adoxophyes honmai) | pest or weed control at 1 ppm (Spodoptera litura) | pest or weed control at 100 ppm (Blattella germanica) | pest or weed control at 100 ppm (Musca domestica)

O=C(Nc1c(I)cc(C(F)(C(F)(F)F)C(F)(F)C(F)(F)F)cc1C(F)(F)F)c1cccc(NC(=O)c2ccccc2F)c1 (centres unmarked) [6-503]
≥ 70%: pest or weed control at 100 ppm (Laodelphax striatellus) | pest or weed control at 1 ppm (Plutella xylostella) | pest or weed control at 1 ppm (Helicoverpa armigera) | pest or weed control at 1 ppm (Adoxophyes honmai) | pest or weed control at 1 ppm (Spodoptera litura) | pest or weed control at 100 ppm (Blattella germanica) | pest or weed control at 100 ppm (Musca domestica)

O=C(Nc1cccc(C(=O)Nc2c(Br)cc(C(F)(C(F)(F)F)C(F)(F)F)cc2C(F)(F)F)c1F)c1cccc(F)c1 [6-1576]
≥ 70%: pest or weed control at 100 ppm (Laodelphax striatellus) | pest or weed control at 1 ppm (Plutella xylostella) | pest or weed control at 1 ppm (Helicoverpa armigera) | pest or weed control at 1 ppm (Adoxophyes honmai) | pest or weed control at 1 ppm (Spodoptera litura) | pest or weed control at 100 ppm (Blattella germanica) | pest or weed control at 100 ppm (Musca domestica)

N#Cc1cccc(C(=O)Nc2cccc(C(=O)Nc3c(Br)cc(C(F)(C(F)(F)F)C(F)(F)F)cc3C(F)(F)F)c2F)c1 [6-1594]
≥ 70%: pest or weed control at 100 ppm (Laodelphax striatellus) | pest or weed control at 1 ppm (Plutella xylostella) | pest or weed control at 1 ppm (Helicoverpa armigera) | pest or weed control at 1 ppm (Adoxophyes honmai) | pest or weed control at 1 ppm (Spodoptera litura) | pest or weed control at 100 ppm (Blattella germanica) | pest or weed control at 100 ppm (Musca domestica)

N#Cc1ccc(C(=O)Nc2cccc(C(=O)Nc3c(Br)cc(C(F)(C(F)(F)F)C(F)(F)F)cc3C(F)(F)F)c2F)cc1 [6-1595]
≥ 70%: pest or weed control at 1 ppm (Choristoneura magnanima) | pest or weed control at 100 ppm (Laodelphax striatellus) | pest or weed control at 1 ppm (Plutella xylostella) | pest or weed control at 1 ppm (Helicoverpa armigera) | pest or weed control at 1 ppm (Spodoptera litura) | pest or weed control at 100 ppm (Blattella germanica)

CN(C(=O)c1ccc(C#N)cc1)c1cccc(C(=O)Nc2c(Br)cc(C(F)(C(F)(F)F)C(F)(F)F)cc2Br)c1F [7-1125]
≥ 70%: pest or weed control at 1 ppm (Choristoneura magnanima) | pest or weed control at 100 ppm (Laodelphax striatellus) | pest or weed control at 1 ppm (Plutella xylostella) | pest or weed control at 1 ppm (Helicoverpa armigera) | pest or weed control at 1 ppm (Spodoptera litura) | pest or weed control at 100 ppm (Blattella germanica)

CN(C(=O)c1ccc(C#N)cc1)c1cccc(C(=O)Nc2c(Br)cc(C(F)(C(F)(F)F)C(F)(F)F)cc2C(F)(F)F)c1F [7-1595]
≥ 70%: pest or weed control at 1 ppm (Choristoneura magnanima) | pest or weed control at 100 ppm (Laodelphax striatellus) | pest or weed control at 1 ppm (Plutella xylostella) | pest or weed control at 1 ppm (Helicoverpa armigera) | pest or weed control at 1 ppm (Spodoptera litura) | pest or weed control at 100 ppm (Blattella germanica)

CN(C(=O)c1ccc(Cl)nc1)c1cccc(C(=O)Nc2c(Br)cc(C(F)(C(F)(F)F)C(F)(F)F)cc2C(F)(F)F)c1F [7-1617]
≥ 70%: pest or weed control at 1 ppm (Choristoneura magnanima) | pest or weed control at 100 ppm (Laodelphax striatellus) | pest or weed control at 1 ppm (Plutella xylostella) | pest or weed control at 1 ppm (Helicoverpa armigera) | pest or weed control at 1 ppm (Spodoptera litura) | pest or weed control at 100 ppm (Blattella germanica)

CN(C(=O)c1ccccc1F)c1cccc(C(=O)Nc2c(I)cc(C(F)(C(F)(F)F)C(F)(F)F)cc2C(F)(F)F)c1F [7-1731]
≥ 70%: pest or weed control at 100 ppm (Laodelphax striatellus) | pest or weed control at 1 ppm (Plutella xylostella) | pest or weed control at 1 ppm (Helicoverpa armigera) | pest or weed control at 10 ppm (Adoxophyes honmai; concentration 10 ppm) | pest or weed control at 1 ppm (Spodoptera litura) | pest or weed control at 100 ppm (Blattella germanica) | pest or weed control at 100 ppm (Musca domestica)
